Test results as given in PubChem BioAssay (NCI).
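1) Cells in 96-well plates. 2) Compound, 48 h, 5 concentrations. 3) Linear interpolation between surrounding doses. 4) Unreached endpoint = highest concentration. At the GI50, growth is halved. TGI: total growth inhibition.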

Legend:
Assay in all cases: inhibition of tumour cell growth, NCI panel, 48 h
OVCAR-3 ovarian = system: OVCAR-3 ovarian
HCT-116 colon = system: HCT-116 colon
K-562 leukemia = system: K-562 leukemia
SNB-19 CNS = system: SNB-19 CNS
UO-31 renal = system: UO-31 renal
OVCAR-5 ovarian = system: OVCAR-5 ovarian
RPMI-8226 leukemia = system: RPMI-8226 leukemia
NCI-H522 lung = system: NCI-H522 lung
SR leukemia = system: SR leukemia
KM12 colon = system: KM12 colon

| Compound | GI50 (OVCAR-3 ovarian) [µM] | TGI (OVCAR-3 ovarian) [µM] | GI50 (HCT-116 colon) [µM] | TGI (HCT-116 colon) [µM] | GI50 (K-562 leukemia) [µM] | TGI (K-562 leukemia) [µM] | GI50 (SNB-19 CNS) [µM] | TGI (SNB-19 CNS) [µM] | GI50 (UO-31 renal) [µM] | TGI (UO-31 renal) [µM] | GI50 (OVCAR-5 ovarian) [µM] | TGI (OVCAR-5 ovarian) [µM] | GI50 (RPMI-8226 leukemia) [µM] | TGI (RPMI-8226 leukemia) [µM] | GI50 (NCI-H522 lung) [µM] | TGI (NCI-H522 lung) [µM] | GI50 (SR leukemia) [µM] | TGI (SR leukemia) [µM] | GI50 (KM12 colon) [µM] | TGI (KM12 colon) [µM] |
| --- | --- | --- | --- | --- | --- | --- | --- | --- | --- | --- | --- | --- | --- | --- | --- | --- | --- | --- | --- | --- |
| COc1ccc2c(c1OC)-c1c(c3ccc([N+](=O)[O-])cc3c(=O)n1CCCBr)C2=O | > 100 | > 100 | 19 | > 100 | 99.7 | > 100 | 69.9 | > 100 | 35.3 | > 100 | > 100 | > 100 | 25 | > 100 | 27.6 | > 100 | 4.67 | > 100 | > 100 | > 100 |
| CN1CCN(Cc2ccc(NC(=O)c3cncc(C#Cc4cnc(N)cc4C#N)c3)cc2C(F)(F)F)CC1 | 4.88 | 20.4 | 1.43 | 9.85 | 0.034 | 12.1 | 6.27 | 18.9 | 2 | 6.95 | 2.76 | 14.2 | 3.83 | 21 | 3.69 | 17.7 | 4.21 | > 100 | 0.0632 | 13.3 |
| Cc1ccc2nc(-c3ccc(OCC(=O)N=Nc4c(O)[nH]c5ccccc45)cc3)[nH]c2c1 | 1.97 | 3.79 | 2.26 | 5.35 | 2.43 | 9.44 | 4.01 | 15.9 | 82.4 | > 100 | 19.1 | > 100 | 3.44 | 17.8 | 2 | 5.09 | 0.499 | 3.76 | 3.55 | 13.2 |
| Cc1cc(Nc2nc(C(=O)Nc3ccccc3)nc3ccccc23)n[nH]1 | 11.5 | > 25 | 4.7 | > 25 | 7.94 | > 25 | > 25 | > 25 | 1.3 | > 25 | > 25 | > 25 | 12.5 | > 25 | 6.37 | > 25 | 4.36 | > 25 | 3.68 | > 25 |
| CCOC(=O)CCC1(C(=O)OCC)CCCC1=O (centres undefined) |  | > 100 |  | > 100 |  | > 100 |  | > 100 |  | > 100 |  | > 100 |  | 77.4 |  | > 100 |  | 60.4 |  | > 100 |
| COc1cccc(CN(C)c2ccc(CO)c(Cl)c2)c1 | 2.31 | 10.6 | 0.243 | 14.1 | 7.56 | > 100 | 35.2 | > 100 | 14.5 | > 83.7 | 0.322 | 1.91 | 12.8 | > 78.3 | 22 | > 74.3 | 41.8 | > 100 | 29.8 | > 100 |
| CCCn1cnc2c(SCC(=O)O)nc(N)nc21 |  | > 100 |  | > 100 |  | > 100 |  | > 100 |  | > 100 |  | > 100 |  | > 100 |  | > 100 |  | > 100 |  | > 100 |
| CNNC(=N\S(=O)(=O)c1cc(C)c(Cl)cc1SCc1ccccc1)/N=C/c1ccc([N+](=O)[O-])s1 | > 44.1 | > 100 | 1.53 | > 100 | 28.4 | > 100 | > 100 | > 100 | > 100 | > 100 | > 100 | > 100 | 0.422 | > 45.3 | > 100 | > 100 | 41.2 | > 100 | 3.03 | > 100 |
| C=C1C(=O)O[C@H]2[C@H]1CC/C(COC(=O)NCc1ccc(OC)cc1)=C\CC[C@@]1(C)O[C@@H]21 | 0.595 | 1.53 | 0.471 | 1.02 | 0.897 | 9.08 | 3.01 | 11 | 0.501 | 0.991 | 2.16 | 8.53 | 0.683 | 2.3 | 0.378 | 1.15 | 0.656 | 3.84 | 4.75 | 20.5 |
| Cc1cc(C)nc(/C(=N\NC(N)=O)C(=O)Nc2nc3ccc(C)cc3s2)c1 |  | > 100 |  | > 100 |  | > 100 |  | > 100 |  | > 100 |  | > 100 |  | > 69.6 |  | > 100 |  | 40.7 |  | > 100 |
| COC(=O)C(CCC(=O)CCl)N1C(=O)c2ccccc2C1=O (centres undefined) |  | 16.7 |  | 14.5 |  | 12.7 |  | 37.1 |  | 24.2 |  | 28.4 |  | 20.7 |  | 4.06 |  | 11.7 |  | 36.9 |
| COC(=O)c1cc2c(cc1Cl)SC1=NN(C)S(=O)N1S2(=O)=O (centres undefined) | > 100 | > 100 | > 100 | > 100 | > 100 | > 100 | > 100 | > 100 | 70.2 | > 100 | > 100 | > 100 | > 100 | > 100 | > 100 | > 100 | > 100 | > 100 | > 100 | > 100 |
| CN(C)c1ccc(/C=C2\N=C(c3ccccc3)N(c3cc(C(F)(F)F)ccc3Cl)C2=O)cc1 | > 78.5 | > 100 | > 100 | > 100 | > 100 | > 100 | > 100 | > 100 | > 100 | > 100 | > 100 | > 100 | 35.7 | > 100 | > 100 | > 100 | 0.0633 |  | > 100 | > 100 |
| Cc1cccc2c1c1ccc3c(c1n2C)C(=O)C=CC3=O |  | 5.08 |  | 15.1 |  | 6.03 |  | 32.3 |  | 9.83 |  | 29.5 |  | 13.2 |  | 2.97 |  | 4.45 |  | 28.6 |
| CCOc1ccc2c(c1)C(=O)c1c-2n(CCCBr)c(=O)c2cc([N+](=O)[O-])ccc12 | 23.2 | > 100 | 5.98 | > 100 | 50.9 | > 100 | 4.75 | > 100 | 2.9 | 13.6 | 59.4 | > 100 | 30.7 | > 100 | 5.74 | 72.8 | 0.554 | > 100 | 56 | > 100 |
